Data from patent US9765087B2, “Benzimidazole derivatives” (ENANTA PHARMACEUTICALS, INC., priority 2009, dated 2017).

Tested on: HCV 1b genotype replicon
Assay: HCV replicon assay (qRT-PCR or luciferase), genotype 1b
Type: cell-based
Conditions: Hepatitis C virus, Table 11, qRT-PCR or luciferase assay, read-out: Genotype-1b replicon EC50 Range
From the text: HCV replicon cell lines (kindly provided by R. Bartenschlager) isolated from colonies as described by Lohman et. al. (Lohman et al. (1999) Science 285: 110-113, expressly incorporated by reference in its entirety) and used for all experiments. The HCV replicon has the nucleic acid sequence set forth in EMBL Accession No.: AJ242651, the coding sequence of which is from nucleotides 1801 to 8406.
The coding sequence of the published HCV replicon was synthesized and subsequently assembled in a modified plasmid pBR322 (Promega, Madison, Wis.) using standard molecular biology techniques. One replicon cell line (“SGR 11-7”) stably expresses HCV replicon RNA which consists of (i) the HCV 5′UTR fused to the first 12 amino acids of the capsid protein, (ii) the neomycin phosphotransferase gene (neo), (iii) the IRES from encephalomyocarditis virus (EMCV), and (iv) HCV […] to NSSB genes and the HCV 3′UTR. Another replicon cell line (“Huh-luc/neo-ET”) described by Vrolijk et. al. (Vrolijk et. al. (2003) Journal of Virological Methods 110:201-209, expressly incorporated by reference in its entirety) stably expresses HCV replicon RNA which consists of (i) the HCV 5′UTR fused to the first 12 amino acids of the capsid protein, (ii) the firefly luciferase reporter gene, (iii) the ubiquitin gene, (iv) the neomycin phosphotransferase gene (neo), (v) the IRES from encephalomyocarditis virus (EMCV), and (vi) HCV NS3 to NS5B genes that harbor cell culture adaptive mutations (E1202G, T1280I, K1846T) and the HCV 3′UTR.
These cell lines were maintained at 37° C., 5% CO2, 100% relative humidity in DMEM (Cat#11965-084, Invitrogen), with 10% fetal calf serum (“FCS”, Invitrogen), 1% non-essential amino acids (Invitrogen), 1% of Glutamax (Invitrogen), 1% of 100× penicillin/streptomycin (Cat#15140-122, Invitrogen) and Geneticin (Cat#10131-027, Invitrogen) at 0.75 mg/ml or 0.5 mg/ml for 11-7 and Huh-luc/neo-ET cells, respectively.
EC50 values of single agent compounds and combinations were determined by HCV RNA detection using quantitative RT-PCR, according to the manufacturer's instructions, with a TAQMAN® One-Step RT-PCR Master Mix Reagents Kit (Cat#AB 4309169, Applied Biosystems) on an ABI Model 7500 thermocycler. The TaqMan primers used for detecting and quantifying HCV RNA were obtained from Integrated DNA Technologies. HCV RNA was normalized to GAPDH RNA levels in drug-treated cells, which is detected and quantified using the Human GAPDH Endogenous Control Mix (Applied Biosystems, AB 4310884E). Total cellular RNA is purified from 96-well plates using the RNAqueous 96 kit (Ambion, Cat# AM1812). Chemical agent cytotoxicity is evaluated using an MTS assay according to the manufacturer's directions (Promega).
Since clinical drug resistance often develops in viral infections following single agent therapies, there is a need to assess the additive, antagonistic, or synergistic properties of combination therapies. We used the HCV replicon system to assess the potential use of the compound of the present invention or in combination therapies with Interferon alpha, cyclosporine analogs and inhibitors targeting other HCV proteins. The acute effects of a single or combinations of drugs are studied in the “Huh-luc/neo-ET” replicon with each chemical agent titrated in an X or Y direction in a 6 point two-fold dilution curve centered around the EC50 of each drug. Briefly, replicon cells are seeded at 7,000 cells per well in 90 ul DMEM (without phenol red, Invitrogen Cat.#31053-036) per well with 10% FCS, 1% non-essential amino acids, 1% of Glutamax and 1% of 100× penicillin/streptomycin and incubated overnight at 37° C., 5% CO2, 100% relative humidity. […]

| SMILES | EC50 |
| --- | --- |
| COC(=O)N[C@H](C(=O)N1CCC[C@H]1c1nc(-c2ccc3cc(/C=C/c4ccc5[nH]c([C@@H]6CCCN6C(=O)[C@@H](NC(=O)OC)C(C)C)nc5c4)ccc3c2)c[nH]1)C(C)C [Example 477] | < 1 nM |
| COC(=O)N[C@H](C(=O)NCc1nc(-c2ccc(C#Cc3ccc4[nH]c([C@@H]5CCCN5C(=O)[C@@H](NC(=O)OC)C(C)C)nc4c3)cc2)c[nH]1)C(C)C [Example 479] | < 1 nM |
| COC(=O)N[C@H](C(=O)N1CCC[C@H]1c1nc(CCc2ccc(-c3ccc4[nH]c([C@@H]5CCCN5C(=O)[C@@H](NC(=O)OC)C(C)C)nc4c3)cc2)c[nH]1)C(C)C [Example 469] | < 1 nM |
| COC(=O)N[C@@H](C(=O)N1CCC[C@H]1c1nc(-c2ccc(C#Cc3ccc4[nH]c([C@@H]5CCCN5C(=O)[C@H](NC(=O)OC)c5ccccc5)nc4c3)cc2)c[nH]1)c1ccccc1 [Example 2-1] | < 1 nM |
| COC(=O)N[C@H](C(=O)N1CC2(CC2)C[C@H]1c1nc(-c2ccc(C#Cc3ccc4[nH]c([C@@H]5CCCN5C(=O)[C@@H](NC(=O)OC)C(C)C)nc4c3)cc2)c[nH]1)C(C)C [Example 523] | < 1 nM |
| COC(=O)N[C@@H](C(=O)N1CCC[C@H]1c1cc(-c2ccc(CCc3ccc4[nH]c([C@@H]5CCCN5C(=O)[C@H](NC(=O)OC)c5ccccc5)nc4c3)cc2)n[nH]1)c1ccccc1 [Example 446] | < 1 nM |
| COC(=O)N[C@H](C(=O)N1CCC[C@H]1c1nc(-c2ccc(CCc3ccc4nc([C@@H]5CCCN5C(=O)[C@@H](NC(=O)OC)C(C)C)[nH]c4c3)s2)c[nH]1)C(C)C [Example 454] | < 1 nM |
| COC(=O)N[C@H](C(=O)N1CCC[C@H]1c1ncc(-c2ccc(C#Cc3ccc4nc([C@]5(Cc6ccccc6)CCCN5C(=O)[C@@H](NC(=O)OC)C(C)C)[nH]c4c3)cc2)[nH]1)C(C)C [Example 536] | < 1 nM |
| COC(=O)N[C@H](C(=O)N1CCC[C@H]1c1nc(-c2ccc(/C=C/c3ccc4[nH]c([C@@H]5CCCN5C(=O)[C@@H](NC(=O)OC)C(C)C)nc4c3)cc2)c[nH]1)C(C)C [Example 492] | < 1 nM |
| COC(=O)N[C@H](C(=O)N1CCC[C@H]1c1ncc(-c2ccc([C@H]3C[C@@H]3c3ccc4nc([C@@H]5CCCN5C(=O)[C@@H](NC(=O)OC)C(C)C)[nH]c4c3)cc2)[nH]1)C(C)C [Example 497-a] | < 1 nM |
| COC(=O)N[C@@H](C(=O)N1CCC[C@H]1c1nc(-c2ccc(/C=C/c3ccc4[nH]c([C@@H]5CCCN5C(=O)[C@H](NC(=O)OC)c5ccccc5)nc4c3)cc2)c[nH]1)c1ccccc1 [Example 357] | < 1 nM |
| COC(=O)N[C@H](C(=O)N1CCC[C@H]1c1nc(-c2ccc(C#Cc3ccc4[nH]c([C@@H]5CCCN5C(=O)[C@@H](NC(=O)OC)[C@@H](C)OC)nc4c3)cc2)c[nH]1)C(C)C [Example 505] | < 1 nM |
| COC(=O)N[C@H](C(=O)N1CCC[C@H]1c1nc(-c2ccc(C#Cc3ccc4[nH]c([C@@H]5CCCN5C(=O)[C@@H](OC(=O)OC)C(C)C)nc4c3)cc2)c[nH]1)C(C)C [Example 480] | < 1 nM |
| COC(=O)N[C@H](C(=O)N1CCC[C@H]1c1nc(-c2ccc(C#Cc3ccc4[nH]c([C@@H]5CC(=O)CN5C(=O)[C@@H](NC(=O)OC)C(C)C)nc4c3)cc2)c[nH]1)C(C)C [Example 486] | < 1 nM |
| COC(=O)N[C@@H](C(=O)N1CCC[C@H]1c1nc(-c2ccc(CCc3ccc4[nH]c([C@@H]5CCCN5C(=O)[C@H](NC(=O)OC)c5ccccc5)nc4c3)cc2)n[nH]1)c1ccccc1 [Example 443] | < 1 nM |
| COC(=O)N[C@H](C(=O)N1CCC[C@H]1c1ncc(-c2ccc(-c3ccc(-c4ccc5nc([C@@H]6CCCN6C(=O)[C@@H](NC(=O)OC)C(C)C)[nH]c5c4)cc3)cc2)[nH]1)C(C)C [Example 499] | < 1 nM |
| COC(=O)N[C@H](C(=O)N1CC2(CC2)C[C@H]1c1nc(-c2ccc(C#Cc3ccc4[nH]c([C@@H]5CC6(CC6)CN5C(=O)[C@@H](NC(=O)OC)C(C)C)nc4c3)cc2)c[nH]1)C(C)C [Example 525] | < 1 nM |
| COC(=O)N[C@@H](C(=O)N1CCC[C@H]1c1ncc(-c2ccc(-c3ccc4[nH]c([C@@H]5CCCN5C(=O)[C@H](NC(=O)OC)c5ccccc5)nc4c3)cc2)[nH]1)c1ccccc1 [Example 2] | < 1 nM |
| CCC(NC(=O)OC)(C(=O)N1CCC[C@H]1c1nc2ccc(C#Cc3ccc(-c4cnc([C@@H]5CCCN5C(=O)[C@@H](NC(=O)OC)C(C)C)[nH]4)cc3)cc2[nH]1)c1ccccc1 (some centres unmarked) [Example 532] | < 1 nM |
| COC(=O)N[C@H](C(=O)N1CCC[C@H]1c1nc2cc(C#Cc3ccc(-c4c[nH]c([C@@H]5CCCN5C(=O)OC(C)(C)C)n4)cc3)ccc2[nH]1)C(C)C [Example 510] | < 1 nM |
| COC(=O)N[C@H](C(=O)N1CCC[C@H]1c1nc(-c2ccc3cc(-c4cc5nc([C@@H]6CCCN6C(=O)[C@@H](NC(=O)OC)C(C)C)[nH]c5cc4Cl)ccc3c2)c[nH]1)C(C)C [Example 490] | < 1 nM |
| COC(=O)N[C@H](C(=O)N1CCC[C@H]1c1nc(-c2ccc3cc(C#Cc4ccc5[nH]c([C@@H]6CCCN6C(=O)[C@@H](NC(=O)OC)C(C)C)nc5c4)ccc3c2)c[nH]1)C(C)C [Example 475] | < 1 nM |
| COC(=O)N[C@H](C(=O)N1CCC[C@H]1c1nc2cc(C#Cc3ccc(-c4c[nH]c([C@@H]5CCCN5C(=O)[C@@H](c5ccccc5)C(C)C)n4)cc3)ccc2[nH]1)C(C)C [Example 512] | < 1 nM |
| COC(=O)N[C@H](C(=O)N1CCC[C@H]1c1nc(C#Cc2ccc(-c3ccc4[nH]c([C@@H]5CCCN5C(=O)[C@@H](NC(=O)OC)C(C)C)nc4c3)cc2)c[nH]1)C(C)C [Example 468] | < 1 nM |
| CC[C@H](C)[C@H](NC(=O)OC)C(=O)N1CCC[C@H]1c1nc2cc(-c3ccc4cc(-c5c[nH]c([C@@H]6CCCN6C(=O)[C@@H](NC(=O)OC)[C@@H](C)OC)n5)ccc4c3)ccc2[nH]1 [Example 466] | < 1 nM |
| COC(=O)N[C@H](C(=O)N1CCC[C@H]1c1nc(CCc2ccc3cc(-c4ccc5[nH]c([C@@H]6CCCN6C(=O)[C@@H](NC(=O)OC)C(C)C)nc5c4)ccc3c2)c[nH]1)C(C)C [Example 472] | < 1 nM |
| COC(=O)N[C@H](C(=O)N1CCC[C@H]1c1nc(-c2ccc(C#Cc3ccc4[nH]c([C@@H]5CCCN5C(=O)[C@@H](NC(=O)OC)C(C)C)nc4c3)cc2)c[nH]1)c1ccccc1 [Example 514] | < 1 nM |

Same assay, conditions: Hepatitis C virus, Table 12, numeric values, read-out: 1b EC50

| SMILES | EC50 |
| --- | --- |
| COC(=O)N[C@H](C(=O)N1CCC[C@H]1c1ncc(-c2ccc(C#Cc3ccc4nc([C@@H]5C[C@]6(CCCOC6)CN5C(=O)[C@@H](NC(=O)OC)C(C)C)[nH]c4c3)cc2)[nH]1)C(C)C [Example 570] | 0.008 nM |
| COC(=O)N[C@H](C(=O)N1CC2(CC2)C[C@H]1c1ncc(-c2ccc(C#Cc3ccc4nc([C@@H]5CC6(CC6)CN5C(=O)OC(C)(C)C)[nH]c4c3)cc2)[nH]1)C(C)C [Example 649] | 0.304 nM |
| COC(=O)N[C@H](C(=O)N1CCC[C@H]1c1ncc(-c2ccc(C#Cc3ccc4nc([C@@H]5C[C@]6(CC(C)=NO6)CN5C(=O)[C@@H](NC(=O)OC)C(C)C)[nH]c4c3)cc2)[nH]1)C(C)C [Example 554] | 0.028 nM |
| COC(=O)N[C@H](C(=O)N1CCC[C@H]1c1ncc(-c2ccc(C#Cc3ccc4nc([C@@H]5C[C@@]6(CCCCO6)CN5C(=O)[C@@H](NC(=O)OC)C(C)C)[nH]c4c3)cc2)[nH]1)C(C)C [Example 632] | 0.013 nM |

Same assay, conditions: Hepatitis C virus, Table 12, range class, read-out: 1b EC50 Range

| SMILES | EC50 |
| --- | --- |
| COC(=O)N[C@H](C(=O)N1[C@@H]2C[C@@H]2C[C@H]1c1ncc(-c2ccc(C#Cc3ccc4nc([C@@H]5CC6(CC6)CN5C(=O)[C@H](NC(=O)OC)c5ccccc5)[nH]c4c3)cc2)[nH]1)C(C)C [Example 648] | < 1 nM |
